Test results as given in patent publication US6887876B2, “Benzamidine derivatives” (Ortho-McNeil Pharmaceutical, Inc., priority 2000, dated 2005).

What was measured:
δ-opioid receptor [1] = target: T1, δ-opioid receptor (Homo sapiens, UniProt P41143); assay: Scintillation screening assay for δ-opioid receptor binding ([3H]bremazocine); conditions: cloned human receptor in CHO cell membranes, [3H]bremazocine 2.4 nM, read-out: δ-Opioid Receptor Binding (% Inhibition), % I @ 25 μM
T1 construct: purchased Receptor Biology, Baltimore, Md; host or cells: CHO cells (membranes)
Source text: Scintillation Screening Assay for δ-Opioid Receptor Binding
This is a receptor based screen to detect the competitive binding of test compounds at the δ-opioid receptor against the radioligand, [^3H]bremazocine (S.A.=25.5 Cl/mmol, Dupont/NEN, Cambridge, Mass.). Unknown compounds that bind to the same receptor as the radioligand will compete for the receptor and reduce the amount of radioligand which binds to the receptor. This is detected as a decreased scintillation signal from that particular incubation. The greater affinity an unknown has for the receptor, the larger the observed decrease in […] to the receptor; thus the assay is in the format of an inhibition study.
The receptor is a cloned human cDNA expressed in mammalian CHO cells. Membranes prepared from these cells are purchased from Receptor Biology, Baltimore, Md. The reaction buffer is composed as follows: HEPES (50 mM final), MgCl.6H2O (5 mM final), o-phenanthroline (20 mg/l), aprotinin (10 mg/l), Pefabloc SC (250 mg/l), leupeptin (0.5 mg/l), pepstatin A (0.7 mg/l), trypsin inhibitor (25 mg/l), chymostatin (10 mg/l), pH=7.2. Naloxone, 10 uM, is used to define non-specific binding. The assay employs filtration to capture receptor and bound ligand.
The receptor (membrane) preparation (28 ug protein) is allowed to incubate with the opioid receptor radioligand ([^3H]bremazocine, 2.4 nM) in 96-well plates until equilibrium is reached (>2 hr). Following incubation with the radioligand at 23° C., the well contents are filtered onto 96-well Whatman GF/C filter plates using a Packard cell harvester. Radioligand bound to the receptor also remains on the filter. The filters are rinsed three times with 0.5 mL of physiological saline (0.9% NaCl) to remove any unbound radioligand from the filter. Filters are dried and scintillation fluid is then added to the filters which emits light in proportion to the amount of radioactivity on the filter which is determined using an Packard Topcount scintillation counter. Data are reported as percent inhibition of control binding.

δ-opioid receptor [2] = target: δ-opioid receptor (Rattus norvegicus, UniProt P33533); assay: Rat brain δ-opioid receptor binding assay ([3H]DPDPE)
μ-opioid receptor = μ-opioid receptor (Rattus norvegicus, UniProt P33535); assay: Rat brain μ-opioid receptor binding assay ([3H]DAMGO)
[3] = tested on: acetylcholine bromide-induced abdominal constriction response; assay: Mouse acetylcholine bromide-induced abdominal constriction assay (MAIT); type: in vivo; conditions: po, 0.5 h, 150 μmole/Kg p.o., acetylcholine bromide 5.5 mg/kg i.p. 30 min later
Protocol: The mouse acetylcholine-induced abdominal constriction assay, as described by Collier et al. in […]., 32: 295-310, 1968 with minor modifications, was used to assess analgesic potency of the compounds of formula (I). The test drugs or appropriate vehicles were administered orally (p.o.) and 30 min later the animal received an intraperitoneal (i.p.) injection of 5.5 mg/kg acetylcholine bromide (Matheson, Coleman and Bell, East Rutherford, N.J.). The mice were then placed in groups of three into glass bell jars and observed for a ten min observation period for the occurrence of an abdominal constriction response (defined as a wave of constriction and elongation passing caudally along the abdominal wall, accompanied by a twisting of the trunk and followed by extension of the hind limbs). For compounds of the present invention, the percent inhibition of this response to a nociceptive stimulus (equated to % analgesia) was calculated as follows: [formula]

T1 sequence (P41143 whole entry): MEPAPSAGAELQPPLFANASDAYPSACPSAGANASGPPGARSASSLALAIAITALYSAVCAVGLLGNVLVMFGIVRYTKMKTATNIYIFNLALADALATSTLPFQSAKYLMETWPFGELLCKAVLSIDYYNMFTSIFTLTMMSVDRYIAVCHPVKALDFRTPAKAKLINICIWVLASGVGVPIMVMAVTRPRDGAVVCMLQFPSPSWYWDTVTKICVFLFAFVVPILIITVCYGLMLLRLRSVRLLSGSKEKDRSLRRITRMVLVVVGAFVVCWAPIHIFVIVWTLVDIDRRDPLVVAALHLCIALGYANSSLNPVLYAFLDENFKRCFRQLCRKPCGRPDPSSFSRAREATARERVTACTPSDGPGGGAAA
Chain of μ-opioid receptor (P33535 whole entry): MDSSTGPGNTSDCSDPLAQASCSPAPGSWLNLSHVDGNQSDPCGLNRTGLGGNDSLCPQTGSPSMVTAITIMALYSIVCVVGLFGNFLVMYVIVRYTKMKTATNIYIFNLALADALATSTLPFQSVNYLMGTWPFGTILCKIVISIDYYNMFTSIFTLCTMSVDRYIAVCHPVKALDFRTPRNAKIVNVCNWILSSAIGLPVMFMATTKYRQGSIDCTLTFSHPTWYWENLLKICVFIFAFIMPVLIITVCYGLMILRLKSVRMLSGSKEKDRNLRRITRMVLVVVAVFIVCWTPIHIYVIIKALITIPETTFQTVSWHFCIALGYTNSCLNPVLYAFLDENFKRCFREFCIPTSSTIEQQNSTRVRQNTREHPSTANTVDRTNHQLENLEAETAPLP
Chain of δ-opioid receptor (Rattus norvegicus, UniProt P33533) (P33533 whole entry): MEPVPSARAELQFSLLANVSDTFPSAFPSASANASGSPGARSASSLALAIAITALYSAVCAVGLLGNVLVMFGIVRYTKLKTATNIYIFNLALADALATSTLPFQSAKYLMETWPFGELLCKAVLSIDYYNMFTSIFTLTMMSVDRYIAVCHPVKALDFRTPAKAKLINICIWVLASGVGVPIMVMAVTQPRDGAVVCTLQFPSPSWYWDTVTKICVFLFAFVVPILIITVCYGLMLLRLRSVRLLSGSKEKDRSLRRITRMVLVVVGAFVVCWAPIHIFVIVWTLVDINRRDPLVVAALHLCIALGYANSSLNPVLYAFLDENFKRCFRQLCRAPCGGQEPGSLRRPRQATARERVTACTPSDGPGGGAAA

In the case of `CCN1CCN(C(=Nc2ccccc2F)c2ccc(C(=O)N(CC)CC)cc2)CC1` [Compound 10, N,N-diethyl-4-[(4-ethyl-1-piperazinyl)[(2-fluorophenyl)imino]methyl]-benzamide], the inhibition at 25 µM (δ-opioid receptor [1]) is reported as 102%, the Ki (δ-opioid receptor [2]) is reported as 0.118 µM and the Ki (μ-opioid receptor) is reported as > 10 µM. For the same compound, the inhibition in vivo at 150 µmol/kg [3] was 26.7%.
